SMILES strings stand for the structures. In brackets after ≈: the same amount, converted by molar mass. Bounds are passed on as bounds.

The first experiment deals with Staphylococcus aureus (Isolate ID ATCC 29213). As to the kind of experiment: Bacterial assay: MIC by broth microdilution or agar dilution (CLSI), S. aureus ATCC 29213. Type of experiment: cell-based. The following applies: S. aureus (ATCC29213). An outline of the steps:
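MICs by CLSI broth microdilution or agar dilution against S. aureus ATCC 29213 and its FtsZ-G196A mutant. Values reported as ranges: A ≤0.25 μg/mL, B >0.25–1.0, C >1.0–16, D >16 μg/mL.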
With `NC(=O)c1c(F)ccc(OC(CC(O)CO)c2nc(-c3ccc(C(F)(F)F)cc3)c(Br)o2)c1F` (stereo not shown) [Compound 148, 3-(1-(5-bromo-4-(4-(trifluoromethyl)phenyl)oxazol-2-yl)-3,4-dihydroxybutoxy)-2,6-difluorobenzamide], the “S. aureus MIC (μg/mL) Activity Range” value is listed as “C (activity>1.0 μg/mL-16 μg/mL)”.

The same experiment, now with this note: Staphylococcus aureus, ATCC29213, read-out: S. aureus MIC (μg/mL) Activity Range, S. aureus (ATCC29213).
For `NC(=O)c1c(F)ccc(OC(C(=O)O)c2coc(-c3ccc(C(F)(F)F)cc3)n2)c1F` (stereo not shown) [Compound 132, 2-(3-carbamoyl-2,4-difluorophenoxy)-2-(2-(4-(trifluoromethyl)phenyl)oxazol-4-yl)acetic acid], the MIC was greater than 16 µg/mL.

`CC(=O)OCC(COC(C)=O)CC(Oc1ccc(F)c(C(N)=O)c1F)c1nc(-c2ccc(C(F)(F)F)cc2)c(Br)o1` (stereo not shown) [Compound 133, 2-(2-(5-bromo-4-(4-(trifluoromethyl)phenyl)oxazol-2-yl)-2-(3-carbamoyl-2,4-difluorophenoxy)ethyl)propane-1,3-diyl diacetate]: the MIC was greater than 16 µg/mL.

`CN(C)CCNC(=O)OCC(Oc1ccc(F)c(C(N)=O)c1F)c1nc(-c2ccc(C(F)(F)F)cc2)c(Br)o1` (stereo not shown) [Compound 134, 2-(5-bromo-4-(4-(trifluoromethyl)phenyl)oxazol-2-yl)-2-(3-carbamoyl-2,4-difluorophenoxy)ethyl (2-(dimethylamino)ethyl)carbamate]: the MIC fell in the range of 1 to 16 µg/mL (≈ 1.61 to 25.8 µM).

`NC(=O)c1c(F)ccc(OC(COC(=O)N2CCNCC2)c2nc(-c3ccc(C(F)(F)F)cc3)c(Br)o2)c1F` (stereo not shown) [Compound 135, 2-(5-bromo-4-(4-(trifluoromethyl)phenyl)oxazol-2-yl)-2-(3-carbamoyl-2,4-difluorophenoxy)ethyl piperazine-1-carboxylate]: the MIC lay within 1 to 16 µg/mL (≈ 1.61 to 25.8 µM).

On to `NC(=O)c1c(F)ccc(OC(CO)c2coc(-c3ccc(C(F)(F)F)cc3)n2)c1F` (stereo not shown) [Compound 136, 2,6-difluoro-3-(2-hydroxy-1-(2-(4-(trifluoromethyl)phenyl)oxazol-4-yl)ethoxy)benzamide], for which the MIC fell in the range of 1 to 16 µg/mL (≈ 2.33 to 37.4 µM).

Regarding `CC(=O)OCC(Oc1ccc(F)c(C(N)=O)c1F)c1nc(-c2ccc(C(F)(F)F)cc2)oc1Br` (stereo not shown) [Compound 137, 2-(5-bromo-2-(4-(trifluoromethyl)phenyl)oxazol-4-yl)-2-(3-carbamoyl-2,4-difluorophenoxy)ethyl acetate], the MIC is greater than 16 µg/mL.

For `NC(=O)c1c(F)ccc(OC(CO)c2nc(-c3ccc(C(F)(F)F)cc3)oc2Br)c1F` (stereo not shown) [Compound 138, 3-(1-(5-bromo-2-(4-(trifluoromethyl)phenyl)oxazol-4-yl)-2-hydroxyethoxy)-2,6-difluorobenzamide], the MIC fell in the range of 1 to 16 µg/mL (≈ 1.97 to 31.5 µM).

Take `NC(=O)c1c(F)ccc(OC(CC(CO)CO)c2nc(-c3ccc(C(F)(F)F)cc3)c(Br)o2)c1F` (stereo not shown) [Compound 139, 3-(1-(5-bromo-4-(4-(trifluoromethyl)phenyl)oxazol-2-yl)-4-hydroxy-3-(hydroxymethyl)butoxy)-2,6-difluorobenzamide]: the MIC was in the range of 1 to 16 µg/mL (≈ 1.77 to 28.3 µM).

Regarding `CCOC(=O)CNC(=O)OCC(Oc1ccc(F)c(C(N)=O)c1F)c1nc(-c2ccc(C(F)(F)F)cc2)c(Br)o1` (stereo not shown) [Compound 140, ethyl 2-(((2-(5-bromo-4-(4-(trifluoromethyl)phenyl)oxazol-2-yl)-2-(3-carbamoyl-2,4-difluorophenoxy)ethoxy)carbonyl)amino)acetate], the MIC was 0.25 to 1 µg/mL (≈ 0.393 to 1.57 µM).

Take `COC(=O)CCNC(=O)OCC(Oc1ccc(F)c(C(N)=O)c1F)c1nc(-c2ccc(C(F)(F)F)cc2)c(Br)o1` (stereo not shown) [Compound 141, methyl 3-(((2-(5-bromo-4-(4-(trifluoromethyl)phenyl)oxazol-2-yl)-2-(3-carbamoyl-2,4-difluorophenoxy)ethoxy)carbonyl)amino)propanoate]: the MIC is less than 0.25 µg/mL.

With `NC(=O)c1c(F)ccc(OC(COC(=O)NCC(=O)O)c2nc(-c3ccc(C(F)(F)F)cc3)c(Br)o2)c1F` (stereo not shown) [Compound 142, 2-(((2-(5-bromo-4-(4-(trifluoromethyl)phenyl)oxazol-2-yl)-2-(3-carbamoyl-2,4-difluorophenoxy)ethoxy)carbonyl)amino)acetic acid], the MIC is greater than 16 µg/mL.

As to `NC(=O)c1c(F)ccc(OC(COC(=O)NCCC(=O)O)c2nc(-c3ccc(C(F)(F)F)cc3)c(Br)o2)c1F` (stereo not shown) [Compound 143, 3-(((2-(5-bromo-4-(4-(trifluoromethyl)phenyl)oxazol-2-yl)-2-(3-carbamoyl-2,4-difluorophenoxy)ethoxy)carbonyl)amino)propanoic acid], the MIC was 1 to 16 µg/mL (≈ 1.61 to 25.7 µM).

In the case of `CC(=O)OCC(Oc1ccc(F)c(C(N)=O)c1F)c1nc(-c2ccc(S(C)(=O)=O)cc2)c(Br)o1` (stereo not shown) [Compound 144, 2-(5-bromo-4-(4-(methylsulfonyl)phenyl)oxazol-2-yl)-2-(3-carbamoyl-2,4-difluorophenoxy)ethyl acetate], the MIC was greater than 16 µg/mL.

Regarding `CS(=O)(=O)c1ccc(-c2nc(C(CO)Oc3ccc(F)c(C(N)=O)c3F)oc2Br)cc1` (stereo not shown) [Compound 145, 3-(1-(5-bromo-4-(4-(methylsulfonyl)phenyl)oxazol-2-yl)-2-hydroxyethoxy)-2,6-difluorobenzamide], the MIC is greater than 16 µg/mL.

As for `NC(=O)c1c(F)ccc(OC(CO)c2nc(Br)c(-c3ccc(C(F)(F)F)cc3)o2)c1F` (stereo not shown) [Compound 149, 3-(1-(4-bromo-5-(4-(trifluoromethyl)phenyl)oxazol-2-yl)-2-hydroxyethoxy)-2,6-difluorobenzamide], the MIC fell in the range of 1 to 16 µg/mL (≈ 1.97 to 31.5 µM).

In the case of `NC(=O)c1c(F)ccc(OC(COCCO)c2nc(-c3ccc(C(F)(F)F)cc3)c(Br)o2)c1F` (stereo not shown) [Compound 150, 3-(1-(5-bromo-4-(4-(trifluoromethyl)phenyl)oxazol-2-yl)-2-(2-hydroxyethoxy)ethoxy)-2,6-difluorobenzamide], the MIC fell in the range of 0.25 to 1 µg/mL (≈ 0.454 to 1.81 µM).

With `CC(C)(C)OC(=O)NCCNC(=O)OCC(Oc1ccc(F)c(C(N)=O)c1F)c1nc(-c2ccc(C(F)(F)F)cc2)c(Br)o1` (stereo not shown) [Compound 151, 2-(5-bromo-4-(4-(trifluoromethyl)phenyl)oxazol-2-yl)-2-(3-carbamoyl-2,4-difluorophenoxy)ethyl tert-butyl ethane-1,2-diyldicarbamate], the MIC was less than 0.25 µg/mL.

With `NCCNC(=O)OCC(Oc1ccc(F)c(C(N)=O)c1F)c1nc(-c2ccc(C(F)(F)F)cc2)c(Br)o1` (stereo not shown) [Compound 152, 2-(5-bromo-4-(4-(trifluoromethyl)phenyl)oxazol-2-yl)-2-(3-carbamoyl-2,4-difluorophenoxy)ethyl (2-aminoethyl)carbamate], the MIC fell in the range of 1 to 16 µg/mL (≈ 1.69 to 27 µM).

For `CN(CCNC(=O)OCC(Oc1ccc(F)c(C(N)=O)c1F)c1nc(-c2ccc(C(F)(F)F)cc2)c(Br)o1)C(=O)OC(C)(C)C` (stereo not shown) [Compound 153, tert-butyl (2-(((2-(5-bromo-4-(4-(trifluoromethyl)phenyl)oxazol-2-yl)-2-(3-carbamoyl-2,4-difluorophenoxy)ethoxy)carbonyl)amino)ethyl)(methyl)carbamate], the MIC was in the range of 0.25 to 1 µg/mL (≈ 0.353 to 1.41 µM).

In the case of `CNCCNC(=O)OCC(Oc1ccc(F)c(C(N)=O)c1F)c1nc(-c2ccc(C(F)(F)F)cc2)c(Br)o1` (stereo not shown) [Compound 154, 2-(5-bromo-4-(4-(trifluoromethyl)phenyl)oxazol-2-yl)-2-(3-carbamoyl-2,4-difluorophenoxy)ethyl (2-(methylamino)ethyl)carbamate], the MIC lay within 1 to 16 µg/mL (≈ 1.65 to 26.3 µM).

Take `COCCOCC(Oc1ccc(F)c(C(N)=O)c1F)c1nc(-c2ccc(C(F)(F)F)cc2)c(Br)o1` (stereo not shown) [Compound 155, 3-(1-(5-bromo-4-(4-(trifluoromethyl)phenyl)oxazol-2-yl)-2-(2-methoxyethoxy)ethoxy)-2,6-difluorobenzamide]: the MIC lay in the range of 0.25 to 1 µg/mL (≈ 0.442 to 1.77 µM).

The values above are taken from US9511073B2, “Aromatic amides and uses thereof” (TAXIS Pharmaceuticals, Inc., priority 2011, dated 2016).
